The source of these data is patent US10800772B2 (Gilead Sciences, Inc., priority 2016, dated 2020).

What all share (assay type): cell-based, HIV-1
In one test the test system is HIV-IIIb (wildtype). Description: Antiviral assay in MT4 cells, HIV-IIIb wildtype. To be noted: read-out: WT EC50. Here is the method:
(§1) Antiviral Assay in MT4 Cells
(§2) For the antiviral assay, 0.4 μL of 189X test concentration of 3-fold serially diluted compound in DMSO was added to 40 μL of cell growth medium (RPMI 1640, 10% FBS, 1% Penicillin-Streptomycin, 1% L-Glutamine, 1% HEPES) in each well of 384-well plate (10 concentrations) in quadruplicate.
(§3) 1 mL Aliquots of MT4 cells were pre-infected for 3 hours at 37° C. with 25 μL of cell growth medium (mock-infected) or a fresh 1:250 dilution of an HIV-IIIb (wildtype, IN T174I BT, or IN T174I DE) concentrated ABI stock (0.004 m.o.i.). IN T174I BT virus was derived from viral breakthrough (BT) assay as described in Mulato, A.; Hansen, D.; Thielen, A.; Porter, D.; Stepan, G.; White, K.; Daeumer, M.; Cihlar, T.; Yant, S. R. AIDS Research and Human Retrovirues, July 2016, ahead of print. doi:10.1089/aid.2016.0071. IN T174I DE virus was derived from serial passaging with dose escalation (DE) of test compound. Infected and uninfected cells were diluted in cell growth media and 35 μL (2000 cells) was added to each well of the assay plates.
(§4) Assay plates were then maintained in a humidified, 5% CO2 incubator at 37° C. After 5 days of incubation, 25 μl of 2× concentrated CellTiter-Glo™ Reagent (catalog # G7573, Promega Biosciences, Inc., Madison, Wis.) was added to each well of the assay plate. Cell lysis was carried out by incubating at room temperature for 10 minutes and then chemiluminescence was read using an Envision plate reader (PerkinElmer). EC50 values were calculated as the compound concentration that caused a 50% […] in luminescence signal, a measure of HIV-1 replication.

The subject of a further test is HIV-IIIb IN T174I BT. In words: Antiviral assay in MT4 cells, HIV-IIIb IN T174I BT virus (from viral breakthrough). The following applies: Human immunodeficiency virus 1, IIIB, MT4, 120 h, read-out: T174I BT EC50, MT4 cells, HIV-IIIb IN T174I BT (viral breakthrough), 5 days, CellTiter-Glo. Here is the method: as §1, §2, §3, §4
A general note: In ATP-based viability assays light output follows the ATP content of the culture.

The subject of another test is HIV-IIIb IN T174I DE. In words: Antiviral assay in MT4 cells, HIV-IIIb IN T174I DE virus (from dose escalation passaging). The following applies: Human immunodeficiency virus 1, IIIB, MT4, 120 h, read-out: T174I DE EC50, MT4 cells, HIV-IIIb IN T174I DE (dose escalation), 5 days, CellTiter-Glo. Here is the method: as §1, §2, §3, §4
The mark [1] stands for this setting: Human immunodeficiency virus 1, IIIB, MT4, 120 h.

Structures are written as SMILES. pEC50: −log10 of the molar value. Read-outs that look alike come from different tables or passages of the source.

One may read the pEC50 as the EC50 on a negative log10 scale, so that one unit is a factor of ten. For the compound `Cc1cc2nc(-c3ccc4c(c3)c(C3CCN(C5(C)COC5)CC3)nn4C)sc2c(-c2ccc(Cl)cc2)c1[C@H](OC(C)(C)C)C(=O)O` [Compound 20, (S)-2-(tert-butoxy)-2-(7-(4-chlorophenyl)-5-methyl-2-(1-methyl-3-(1-(3-methyloxetan-3-yl)piperidin-4-yl)-1H-indazol-5-yl)benzo[d]thiazol-6-yl)acetic Acid], the values for the pEC50 in the test with HIV-IIIb (wildtype) (setting [1]), in the test on HIV-IIIb IN T174I BT and with HIV-IIIb IN T174I DE were 8.15, 6.54 and 6.27, respectively.
For `COCC(=O)N1CCC(c2nn(C)c3ccc(-c4nc5cc(C)c([C@H](OC(C)(C)C)C(=O)O)c(-c6ccc(Cl)cc6)c5s4)cc23)C1` (stereo partly drawn) [Compound 75, (S)-2-(tert-butoxy)-2-(7-(4-chlorophenyl)-2-(3-((R)-1-(2-methoxyacetyl)pyrrolidin-3-yl)-1-methyl-1H-indazol-5-yl)-5-methylbenzo[d]thiazol-6-yl)acetic acid] the same measures were 7.80, 6.37 and 6.30.
For `CCN1CCN(c2nn(C)c3ccc(-c4nc5cc(C)c([C@H](OC(C)(C)C)C(=O)O)c(-c6ccc(Cl)cc6)c5s4)cc23)C1=O` [Compound 82, (S)-2-(tert-butoxy)-2-(7-(4-chlorophenyl)-2-(3-(3-ethyl-2-oxoimidazolidin-1-yl)-1-methyl-1H-indazol-5-yl)-5-methylbenzo[d]thiazol-6-yl)acetic acid] the same measures were 7.85, 5.51 and 5.41.
For `Cc1cc2nc(-c3ccc4c(c3)c(N3CC(C)(C)NC3=O)nn4C)sc2c(-c2ccc(Cl)cc2)c1[C@H](OC(C)(C)C)C(=O)O` [Compound 121, (S)-2-(tert-butoxy)-2-(7-(4-chlorophenyl)-2-(3-(4,4-dimethyl-2-oxoimidazolidin-1-yl)-1-methyl-1H-indazol-5-yl)-5-methylbenzo[d]thiazol-6-yl)acetic acid] the same measures were 7.41, 5.46 and 5.57.
Turning to `Cc1cc2nc(-c3ccc4c(c3)c(C3CN(C5COC5)C3)nn4C)sc2c(-c2ccc(Cl)cc2)c1[C@H](OC(C)(C)C)C(=O)O` [Compound 59, (S)-2-(tert-butoxy)-2-(7-(4-chlorophenyl)-5-methyl-2-(1-methyl-3-(1-(oxetan-3-yl)azetidin-3-yl)-1H-indazol-5-yl)benzo[d]thiazol-6-yl)acetic acid], the figures for the pEC50 in the test with HIV-IIIb (wildtype) (setting [1]), with HIV-IIIb IN T174I BT and in the test on HIV-IIIb IN T174I DE were 8.10, 6.05 and 5.76, respectively.
With `Cc1cc2nc(-c3ccc4c(c3)c(C3CCN(C5COC5)CC3)nn4C(F)F)sc2c(-c2ccc(Cl)cc2)c1[C@H](OC(C)(C)C)C(=O)O` [Compound 39, (S)-2-(tert-butoxy)-2-(7-(4-chlorophenyl)-2-(1-(difluoromethyl)-3-(1-(oxetan-3-yl)piperidin-4-yl)-1H-indazol-5-yl)-5-methylbenzo[d]thiazol-6-yl)acetic acid], the negative logarithm of the EC50 (pEC50) in the test with HIV-IIIb (wildtype) (setting [1]) was 7.89; in the test on HIV-IIIb IN T174I BT it was 6.19; in the test on HIV-IIIb IN T174I DE it was 5.94.
Taken in the same sequence, the figures for `CO[C@@H]1CCN(c2nn(C)c3ccc(-c4nc5cc(C)c([C@H](OC(C)(C)C)C(=O)O)c(-c6ccc(Cl)cc6)c5s4)cc23)C1` [Compound 140, (S)-2-(tert-butoxy)-2-(7-(4-chloro-phenyl)-2-(3-((R)-3-methoxy-pyrrolidin-1-yl)-1-methyl-1H-indazol-5-yl)-5-methylbenzo[d]thiazol-6-yl) acetic acid] were 7.54, 5.63 and 5.58.
In the case of `Cc1cc2nc(-c3ccc4c(c3)c(N3CCC(C5COC5)CC3)nn4C)sc2c(-c2ccc(Cl)cc2)c1[C@H](OC(C)(C)C)C(=O)O` [Compound 146, (S)-2-(tert-butoxy)-2-(7-(4-chloro-phenyl)-5-methyl-2-(1-methyl-3-(4-(oxetan-3-yl)piperidin-1-yl)-1H-indazol-5-yl)benzo[d]thiazol-6-yl)acetic acid], the pEC50 in the test with HIV-IIIb (wildtype) (setting [1]) was 7.51; in the test with HIV-IIIb IN T174I BT, 5.76; in the test with HIV-IIIb IN T174I DE, 5.65.
Turning to `Cc1cc2nc(-c3ccc4c(c3)c(C3CCN(C(=O)OC(C)(C)C)CC3)nn4C)sc2c(-c2ccc(Cl)cc2)c1[C@H](OC(C)(C)C)C(=O)O` [Compound 23, (S)-2-(tert-butoxy)-2-(2-(3-(1-(tert-butoxycarbonyl)piperidin-4-yl)-1-methyl-1H-indazol-5-yl)-7-(4-chlorophenyl)-5-methylbenzo[d]thiazol-6-yl)acetic Acid], the values for the pEC50 with HIV-IIIb (wildtype) (setting [1]), with HIV-IIIb IN T174I BT and in the test with HIV-IIIb IN T174I DE were 7.00, 6.01 and 6.45, respectively.
With `Cc1cc2nc(-c3ccc4c(c3)c(N3CC5CC(C3)N5C)nn4C)sc2c(-c2ccc(Cl)cc2)c1[C@H](OC(C)(C)C)C(=O)O` [Compound 101, (2S)-2-(tert-butoxy)-2-(7-(4-chlorophenyl)-5-methyl-2-(1-methyl-3-(6-methyl-3,6-diazabicyclo[3.1.1]heptan-3-yl)-1H-indazol-5-yl)benzo[d]thiazol-6-yl)acetic Acid], the pEC50 in the test with HIV-IIIb (wildtype) (Human immunodeficiency virus 1, 120 h, MT4 cells, HIV-IIIb wildtype, 5 days, CellTiter-Glo) was 7.24; with HIV-IIIb IN T174I BT it was 4.24; with HIV-IIIb IN T174I DE, 4.24.
For the compound `Cc1cc2nc(-c3ccc4c(c3)c(C3CCN([C@@H]5CCN(C)C5)CC3)nn4C)sc2c(-c2ccc(Cl)cc2)c1[C@H](OC(C)(C)C)C(=O)O` [Compound 164, (S)-2-(tert-butoxy)-2-(7-(4-chloro-phenyl)-5-methyl-2-(1-methyl-3-(1-((R)-1-methyl-pyrrolidin-3-yl)piperidin-4-yl)-1H-indazol-5-yl)benzo[d]thiazol-6-yl)acetic acid], the pEC50 is 7.82 in the test on HIV-IIIb (wildtype) (setting [1]), 6.74 in the test with HIV-IIIb IN T174I BT and 6.74 in the test on HIV-IIIb IN T174I DE.
On to `Cc1cc2nc(-c3ccc4c(n3)c(C3CCN([C@H]5C[C@H](O)C5)CC3)nn4C)sc2c(-c2ccc(Cl)cc2)c1[C@H](OC(C)(C)C)C(=O)O` [Compound 186, (S)-2-(tert-butoxy)-2-(7-(4-chloro-phenyl)-2-(3-(1-((1r,3r)-3-hydroxy-cyclobutyl)piperidin-4-yl)-1-methyl-1H-pyrazolo[4,3-b]pyridin-5-yl)-5-methylbenzo[d]thiazol-6-yl) acetic acid], for which the pEC50 in the test on HIV-IIIb (wildtype) (setting [1]) is 7.54; in the test on HIV-IIIb IN T174I BT, 6.44; in the test on HIV-IIIb IN T174I DE, 6.11.
Taken in the same sequence, the figures for `CC(=O)N1CC[C@H]1CN1CCC(c2nn(C)c3ccc(-c4nc5cc(C)c([C@H](OC(C)(C)C)C(=O)O)c(-c6ccc(Cl)cc6)c5s4)cc23)CC1` [Compound 151, (S)-2-(2-(3-(1-(((S)-1-acetyl-azetidin-2-yl)methyl)piperidin-4-yl)-1-methyl-1H-indazol-5-yl)-7-(4-chloro-phenyl)-5-methylbenzo[d]thiazol-6-yl)-2-(tert-butoxy) acetic acid] were 7.80, 6.63 and 6.64.
Taken in the same sequence, the figures for `COC(=O)N(C)C1CN(c2nn(C)c3ccc(-c4nc5cc(C)c([C@H](OC(C)(C)C)C(=O)O)c(-c6ccc(Cl)cc6)c5s4)cc23)C1` [Compound 102, (S)-2-(tert-butoxy)-2-(7-(4-chlorophenyl)-2-(3-(3-((methoxycarbonyl)(methyl)amino)azetidin-1-yl)-1-methyl-1H-indazol-5-yl)-5-methylbenzo[d]thiazol-6-yl)acetic acid] were 7.89, 6.03 and 5.90.
In the case of `Cc1cc2nc(-c3cnc4c(c3)c(N3CCN(C(C)C)CC3)nn4C)sc2c(-c2ccc(Cl)cc2)c1[C@H](OC(C)(C)C)C(=O)O` [Compound 111, (S)-2-(tert-butoxy)-2-(7-(4-chlorophenyl)-2-(3-(4-isopropylpiperazin-1-yl)-1-methyl-1H-pyrazolo[3,4-b]pyridin-5-yl)-5-methylbenzo[d]thiazol-6-yl)acetic acid], the pEC50 is 8.30 in the test with HIV-IIIb (wildtype) (setting [1]), 5.94 in the test with HIV-IIIb IN T174I BT and 5.54 with HIV-IIIb IN T174I DE.
`CCN1CC(c2nn(C)c3ccc(-c4nc5cc(C)c([C@H](OC(C)(C)C)C(=O)O)c(-c6ccc(Cl)cc6)c5s4)cc23)C1` [Compound 58, (S)-2-(tert-butoxy)-2-(7-(4-chlorophenyl)-2-(3-(1-ethylazetidin-3-yl)-1-methyl-1H-indazol-5-yl)-5-methylbenzo[d]thiazol-6-yl)acetic acid]: the pEC50 was 8.05 with HIV-IIIb (wildtype) (setting [1]), 5.71 in the test with HIV-IIIb IN T174I BT and 5.51 in the test with HIV-IIIb IN T174I DE.
